According to patent publication US10562869B2, “Oxadiazole compounds” (REMYND NV, priority 2014, dated 2020):

Test system: M17_3TAU(P301L) cells
Test: Retinoic acid-induced cytotoxicity (LDH) in TAU-P301L expressing M17_3TAU(P301L) neuroblastoma cells
Assay type: cell-based
Conditions: Homo sapiens, Neuroblastoma cell, 168 h; toxicity inhibition (LDH) in M17_3TAU(P301L) cells challenged with retinoic acid, 7 days
Text: A TAU expression plasmid was constructed by sub-cloning the cDNA encoding for human TAU-P301L protein, wherein proline at position 301 was substituted by a leucine residue, into mammalian expression vector pcDNA3.1 resulting in the plasmid pcDNA3.1-TAUP301L. Plasmid pcDNA3.1-TAU P301L was transfected into human neuroblastoma cells (BE-M17; ATCC No. CRL-2267™) using lipofectamine reagent and subsequently, independent clonal cell lines with the plasmids stably integrated into the genome were selected by antibiotic resistance selection (Geneticin (G418)), resulting in cell line M17_3TAUP301L. Expression of the TAUP301L gene in the M17_3TAUP301L cells was confirmed by Western blot analysis.
M17_3TAU(P301L) cells were treated chronically with retinoic acid (RA) in low serum conditions to induce Alzheimer's disease-like intracellular signaling deregulation leading to increased TAU levels and subsequent cell death. Cytotoxicity of cells was measured by quantification of lactate dehydrogenase (LDH) levels. In dead cells LDH leaked out of the cells into the medium due to a loss of plasma-membrane integrity.
3 days preceding the experiment, a pre-culture of M17_3TAU(P301L) cells was prepared, starting from a stock culture, at a density of 50.000-100.000 cells/cm^2 in culture medium (Optimem Reduced Serum with phenol red (Invitrogen, Cat. 31985-047)) supplemented with 10% fetal calf serum (FCS), 1 mM sodium pyruvate, 1×non-essential amino acids (NEAA), 500 μg/ml G418 and 0.5×(ABAM). At the day of the experiment these precultures were diluted to ˜0.1·10^6 cells/ml in detection medium (Optimem Reduced Serum without phenol red (Gibco, Cat.11058-021) supplemented with 1% fetal calf serum (FCS), 1 mM sodium pyruvate, 1×non-essential amino acids (NEAA), 500 μg/ml G418 and 0.5×ABAM) and 60 μL of this suspension was dispensed per well into a 96-well microtiter plate. After 3 hours of incubation at 37° C./5% CO2 an equal volume of detection medium (without FCS) containing 3.75 μM RA was added and subsequently incubated for 7 days at 37° C./5% CO2. Then LDH activity was determined using the Promega Cytotox 96 Non-Radioactive cytotoxicity assay (Cat. G1780), according to the manufacturer's instructions. Cytotoxicity was defined as the ratio of LDH relative the total LDH in the cells and supernatant.
The assay described above using the M17_3TAU(P301L) cell line allowed to screen compounds for their ability to decrease cytotoxicity in RA-challenged cells. Compounds of the invention were tested for their ability to decrease toxicity at different concentrations, ranging from low non-effective concentrations to high potent concentrations. Afterwards, the dose-dependent inhibition curve was used to calculate their EC50. A compound was considered to be active in this test when it inhibited toxicity by more than 20% relative to untreated M17_3TAU(P301L) cells at a concentration of 10 μM or lower.

| SMILES | EC50 [µM] |
| --- | --- |
| COc1ccc(CCN2CCN(c3nc(Cc4ccc(Cl)cc4)no3)CC2)cn1 [Cmpd060, 1-[3-(4-Chloro-benzyl)-[1,2,4]oxadiazol-5-yl]-4-[2-(6-methoxy-pyridin-3-yl)-ethyl]-piperazine] | 0.074 |
| Cc1ccc(CN2CCN(c3nc(-c4ccccc4)no3)CC2)cc1 [Cmpd002, 5-(4-(4-Methylbenzyl)piperazin-1-yl)-3-phenyl-1,2,4-oxadiazole] | 0.008 |
| Clc1ccc(CCN2CCN(c3nc(C4(c5ccccc5)CC4)no3)CC2)cc1 [Cmpd127, 5-(4-(4-Chlorophenethyl)piperazin-1-yl)-3-(1-phenylcyclopropyl)-1,2,4-oxadiazole] | 0.059 |
| Cc1ccccc1CN1CCN(c2nc(-c3ccc(Cl)cc3)no2)CC1 [Cmpd022, 3-(4-Chlorophenyl)-5-(4-(2-methylbenzyl)piperazin-1-yl)-1,2,4-oxadiazole] | 0.035 |
| c1ccc(-c2noc(N3CCN(CCN4CCOCC4)CC3)n2)cc1 [Cmpd005, 4-(2-(4-(3-Pphenyl-1,2,4-oxadiazol-5-yl)piperazin-1-yl)ethyl)morpholine] | 0.041 |
| Cc1ccccc1CN1CCN(c2nc(C3(c4ccccc4)CC3)no2)CC1 [Cmpd123, 5-(4-(2-Methylbenzyl)piperazin-1-yl)-3-(1-phenylcyclopropyl)-1,2,4-oxadiazole] | 0.849 |
| COc1cc(CCN2CCN(c3nc(C4C[C@@H]5CC[C@H]4C5)no3)CC2)ccn1 (stereo partly drawn) [Cmpd187, 3-((1S,4R)-bicyclo[2.2.1]heptan-2-yl)-5-(4-(2-(2-methoxypyridin-4-yl)ethyl)piperazin-1-yl)-1,2,4-oxadiazole] | 0.047 |
| COc1cccc(CCN2CCN(c3nc(Cc4ccc(Cl)cc4)no3)CC2)c1 [Cmpd056, 1-[3-(4-Chloro-benzyl)-[1,2,4]oxadiazol-5-yl]-4-[2-(3-methoxy-phenyl)-ethyl]-piperazine] | 0.075 |
| FC(F)(F)CCc1noc(N2CCN(CCc3ccc(Cl)cc3)CC2)n1 [Cmpd174, 5-(4-(4-Chlorophenethyl)piperazin-1-yl)-3-(3,3,3-trifluoropropyl)-1,2,4-oxadiazole] | 0.024 |
| COc1cc(CCN2CCN(c3nc(-c4cccc(F)c4)no3)CC2)ccn1 [Cmpd032, 3-(3-Fluorophenyl)-5-(4-(2-(2-methoxypyridin-4-yl)ethyl)piperazin-1-yl)-1,2,4-oxadiazole] | 0.008 |
| CC(C)CCN1CCN(c2nc(CCC(F)(F)F)no2)CC1 [Cmpd179, 5-(4-Isopentylpiperazin-1-yl)-3-(3,3,3-trifluoropropyl)-1,2,4-oxadiazole] | 0.046 |
| FC(F)(F)CCc1noc(N2CCN(Cc3ccccc3Cl)CC2)n1 [Cmpd177, 5-(4-(2-Chlorobenzyl)piperazin-1-yl)-3-(3,3,3-trifluoropropyl)-1,2,4-oxadiazole] | 0.172 |
| Cc1ccccc1CN1CCN(c2nc(Cc3cccc(Cl)c3)no2)CC1 [Cmpd075, 1-[3-(3-Chloro-benzyl)-[1,2,4]oxadiazol-5-yl]-4-(2-methyl-benzyl)-piperazine] | 0.238 |
| COc1cc(CCN2CCN(c3nc(-c4cccc(Cl)c4)no3)CC2)ccn1 [Cmpd025, 3-(3-Chlorophenyl)-5-(4-(2-(2-methoxypyridin-4-yl)ethyl)piperazin-1-yl)-1,2,4-oxadiazole] | 0.014 |
| CCOCCN1CCN(c2nc(Cc3ccc(Cl)cc3)no2)CC1 [Cmpd065, 1-[3-(4-Chloro-benzyl)-[1,2,4]oxadiazol-5-yl]-4-(2-ethoxy-ethyl)-piperazine] | 0.763 |
| Fc1ccc(Cc2noc(N3CCN(CCc4ccc(Cl)cc4)CC3)n2)cc1F [Cmpd102, 1-[2-(4-Chloro-phenyl)-ethyl]-4-[3-(3,4-difluoro-benzyl)-[1,2,4]oxadiazol-5-yl]-piperazine] | 0.017 |

| SMILES | EC50 [µM] |
| --- | --- |
| Cc1cccc(CN2CCN(c3nc(CCC(F)(F)F)no3)CC2)n1 [Cmpd182, 5-(4-((6-Methylpyridin-2-yl)methyl)piperazin-1-yl)-3-(3,3,3-trifluoropropyl)-1,2,4-oxadiazole] | 0.282 |
| Cc1ccc(CN2CCN(c3nc(C4C[C@@H]5CC[C@H]4C5)no3)CC2)cc1 (stereo partly drawn) [Cmpd185, 3-((1S,4R)-bicyclo[2.2.1]heptan-2-yl)-5-(4-(4-methylbenzyl)piperazin-1-yl)-1,2,4-oxadiazole] | 0.071 |
| FC(F)(F)CCCN1CCN(c2nc(Cc3ccc(Cl)cc3)no2)CC1 [Cmpd068, 1-[3-(4-Chloro-benzyl)-[1,2,4]oxadiazol-5-yl]-4-(4,4,4-trifluoro-butyl)-piperazine] | 0.151 |
| Cc1ccccc1CN1CCN(c2nc(C3(c4ccc(F)cc4)CC3)no2)CC1 [Cmpd108, 3-(1-(4-Fluorophenyl)cyclopropyl)-5-(4-(2-methylbenzyl)piperazin-1-yl)-1,2,4-oxadiazole] | 0.758 |
| COc1cccc(CCN2CCN(c3nc(C4(c5ccccc5)CC4)no3)CC2)c1 [Cmpd125, 5-(4-(3-Methoxyphenethyl)piperazin-1-yl)-3-(1-phenylcyclopropyl)-1,2,4-oxadiazole] | 0.103 |
| Clc1ccc(CCN2CCN(c3nc(-c4ccc(Cl)cc4)no3)CC2)cc1 [Cmpd019, 5-(4-(4-Chlorophenethyl)piperazin-1-yl)-3-(4-chlorophenyl)-1,2,4-oxadiazole] | 0.112 |
| Cc1ccccc1CN1CCN(c2nc(Cc3ccc(F)c(F)c3)no2)CC1 [Cmpd104, 1-[3-(3,4-Difluoro-benzyl)-[1,2,4]oxadiazol-5-yl]-4-(2-methyl-benzyl)-piperazine] | 0.037 |
| Clc1ccc(Cc2noc(N3CCN(Cc4ccccc4Cl)CC3)n2)cc1 [Cmpd062, 1-(2-Chloro-benzyl)-4-[3-(4-chloro-benzyl)-[1,2,4]oxadiazol-5-yl]-piperazine] | 0.002 |
| CCC(c1ccccc1)c1noc(N2CCN(CCc3cccc(OC)c3)CC2)n1 (centres unmarked) [Cmpd049, 5-(4-(3-Methoxyphenethyl)piperazin-1-yl)-3-(1-phenylpropyl)-1,2,4-oxadiazole] | 0.01 |
| COc1cc(CCN2CCN(c3nc(C4(c5ccccc5)CC4)no3)CC2)ccn1 [Cmpd131, 5-(4-(2-(2-Methoxypyridin-4-yl)ethyl)piperazin-1-yl)-3-(1-phenylcyclopropyl)-1,2,4-oxadiazole] | 0.135 |
| Clc1cccc(-c2noc(N3CCN(Cc4ccccc4Cl)CC3)n2)c1 [Cmpd027, 5-(4-(2-Chlorobenzyl)piperazin-1-yl)-3-(3-chlorophenyl)-1,2,4-oxadiazole] | 0.074 |
| Clc1ccc(-c2noc(N3CCN(CCc4ccccc4)CC3)n2)cc1 [Cmpd020, 3-(4-Chlorophenyl)-5-(4-phenethylpiperazin-1-yl)-1,2,4-oxadiazole] | 0.01 |
| Clc1ccc(CCN2CCN(c3nc(-c4cccc(Cl)c4)no3)CC2)cc1 [Cmpd024, 5-(4-(4-Chlorophenethyl)piperazin-1-yl)-3-(3-chlorophenyl)-1,2,4-oxadiazole] | 0.119 |
| FC(F)(F)CCc1noc(N2CCN(CCN3CCOCC3)CC2)n1 [Cmpd180, 4-(2-(4-(3-(3,3,3-Trifluoropropyl)-1,2,4-oxadiazol-5-yl)piperazin-1-yl)ethyl)morpholine] | 0.222 |
| COc1cc(CCN2CCN(c3nc(CCC(F)(F)F)no3)CC2)ccn1 [Cmpd175, 5-(4-(2-(2-Methoxypyridin-4-yl)ethyl)piperazin-1-yl)-3-(3,3,3-trifluoropropyl)-1,2,4-oxadiazole] | 0.105 |
| Fc1ccc(Cc2noc(N3CCN(Cc4ccc(Cl)cc4)CC3)n2)cc1F [Cmpd097, 1-(4-Chloro-benzyl)-4-[3-(3,4-difluoro-benzyl)-[1,2,4]oxadiazol-5-yl]-piperazine] | 0.486 |
